Here are results for two molecules from ChEMBL document CHEMBL5614392, “Discovery of novel N2-indazole derivatives as phosphodiesterase 4 inhibitors for the treatment of inflammatory bowel disease” (Eur J Med Chem, 2024).

Active and inactive are the calls of the source. The rule behind the calls is not given here.

For data set [1], the target named is T1, 3',5'-cyclic-AMP phosphodiesterase 4B (Homo sapiens, UniProt Q07343). Briefly: Inhibition of recombinant human PDE4B catalytic domain extracted from baculovirus infected Sf9 cells using […] preincubated for 20 mins followed by 2 mins incubation at 65 degreeC and measured 10 mins after substrate addition by scintillation counter.
For data set [2], the target named is T2, 3',5'-cyclic-AMP phosphodiesterase 4D (Homo sapiens, UniProt Q08499). Briefly: Inhibition of PDE4D7 (unknown origin) using FAM-cyclic-3'5'-AMP as substrate at 100 nM incubated for 1 hrs by fluorescence polarization assay relative to control.
For data set [3], the target named is T2, 3',5'-cyclic-AMP phosphodiesterase 4D. In words: Inhibition of PDE4D7 (unknown origin) using FAM-cyclic-3'5'-AMP as substrate incubated for 1 hrs by fluorescence polarization assay. (Polarisation of emitted light reports the rotation of a fluorescent probe.)
Data set [4] shares this target. In words: Inhibition of PDE4D7 (unknown origin) using FAM-cyclic-3'5'-AMP as substrate at 10 nM incubated for 1 hrs by fluorescence polarization assay relative to control.
Data set [5] deals with cGMP-inhibited 3',5'-cyclic phosphodiesterase 3B (Homo sapiens) (UniProt Q13370). In words: Inhibition of PDE3B (unknown origin) using FAM-cyclic-3'5'-AMP as substrate at 10 uM incubated for 1 hrs by fluorescence polarization assay relative to control.
The target in data set [6] is High affinity 3',5'-cyclic-AMP phosphodiesterase 7A (Homo sapiens) (UniProt Q13946). Briefly: Inhibition of PDE7A (unknown origin) using FAM-cyclic-3'5'-AMP as substrate at 10 uM incubated for 1 hrs by fluorescence polarization assay relative to control.
Data set [7] has as its target High affinity cAMP-specific and IBMX-insensitive 3',5'-cyclic phosphodiesterase 8A (Homo sapiens) (UniProt O60658). Briefly: Inhibition of PDE8A (unknown origin) using FAM-cyclic-3'5'-AMP as substrate at 10 uM incubated for 1 hrs by fluorescence polarization assay relative to control.
Data set [8] deals with High affinity cGMP-specific 3',5'-cyclic phosphodiesterase 9A (Homo sapiens) (UniProt O76083). In words: Inhibition of PDE9A (unknown origin) using FAM-cyclic-3'5'-AMP as substrate at 10 uM incubated for 1 hrs by fluorescence polarization assay relative to control.
Another data set has as its system HT-22. In words: Cytotoxicity against mouse HT-22 cells at 10 to 30 uM. It counts as toxicity, cell-based. The following applies: ht-22, 30 µM, dose 10-30 µM.
The target of data set [9] is T1, 3',5'-cyclic-AMP phosphodiesterase 4B. In words: Inhibition of PDE4B (unknown origin) using FAM-cyclic-3'5'-AMP as substrate incubated for 1 hrs by fluorescence polarization assay.
Data set [10] deals with T2, 3',5'-cyclic-AMP phosphodiesterase 4D. In words: Inhibition of PDE4D (unknown origin) using FAM-cyclic-3'5'-AMP as substrate incubated for 1 hrs by fluorescence polarization assay.
Data set [11] can be described thus: Selectivity ratio of IC50 for PDE3B (unknown origin) to IC50 for PDE4D (unknown origin).
Data set [12] is described as follows: Selectivity ratio of IC50 for PDE7A (unknown origin) to IC50 for PDE4D (unknown origin).
The nature of data set [13]: Selectivity ratio of IC50 for PDE8A (unknown origin) to IC50 for PDE4D (unknown origin).
Data set [14] in a line: Selectivity ratio of IC50 for PDE9A (unknown origin) to IC50 for PDE4D (unknown origin).
Data set [15] is described as follows: Acute toxicity in male C57BL/6J mouse assessed as body weight loss at 1 g/Kg, po administered for 14 days. It counts as organism-based. Conditions: in vivo, 1000 mg/kg, 336 h, time 14 day.
The nature of data set [16]: Toxicity in ketamine/xylazine-induced anesthetic male C57BL/6J mouse model assessed as emetogenic potential by measuring reduction in anesthesia duration at 5 to 10 mg/kg, po preadministered with compound for 15 mins followed by ketamine/xylazine administration. It counts as organism-based. Conditions: in vivo, 0.25 h, dose 5-10 mg/kg.
The nature of data set [17]: Oral bioavailability in male C57BL/6J mouse. It is filed as ADME, organism-based. Conditions: in vivo.
The subject of data set [18] is RAW264.7. Briefly: Antiinflammatory activity against mouse RAW264.7 cells assessed as inhibition of LPS-induced IL-6 mRNA production at 10 uM incubated for 24 hrs by SYBR green quantitative PCR analysis. It counts as functional, cell-based.
Data set [19] deals with RAW264.7. In words: Antiinflammatory activity against mouse RAW264.7 cells assessed as inhibition of LPS-induced TNF-alpha mRNA production at 10 uM incubated for 24 hrs by SYBR green quantitative PCR analysis. It is filed as functional, cell-based.
Data set [20] has as its system RAW264.7. In words: Antiinflammatory activity against mouse RAW264.7 cells assessed as inhibition of LPS-induced iNOS mRNA production at 10 uM incubated for 24 hrs by SYBR green quantitative PCR analysis. It counts as functional, cell-based.
Data set [21] deals with Mus musculus. Briefly: Antiinflammatory activity against DSS-induced colitis C57BL/6J mouse model assessed as decrease in body weight loss at 10 mg/kg, po pretreated with DSS for 10 days followed by twice daily compound administration for 8 days starting from day 3 to day 10 and measured on day 6. Conditions: time 4.0 day. It counts as functional, organism-based.
The test system of data set [22] is Mus musculus. Briefly: Antiinflammatory activity against DSS-induced colitis C57BL/6J mouse model assessed as reduction in mucosal damage in colon at 3 to 10 mg/kg, po pretreated with DSS for 10 days followed by twice daily compound administration for 8 days starting from day 3 to day 10 by H and E staining based analysis. It counts as functional, organism-based. Conditions: dose 3-10 mg/kg, time 8.0 day.

Data set [23] has as its system Mus musculus. In words: Antiinflammatory activity against DSS-induced colitis C57BL/6J mouse model assessed as reduction in lamina propria breakdown in colon at 3 to 10 mg/kg, po pretreated with DSS for 10 days followed by twice daily compound administration for 8 days starting from day 3 to day 10 by H and E staining based analysis. The following applies: dose 3-10 mg/kg, time 8.0 day. It is filed as functional, organism-based.

Data set [24] concerns Mus musculus. In words: Antiinflammatory activity against DSS-induced colitis C57BL/6J mouse model assessed as reduction in inflammatory cell infiltration in colon at 3 to 10 mg/kg, po pretreated with DSS for 10 days followed by twice daily compound administration for 8 days starting from day 3 to day 10 by H and E staining based analysis. It counts as functional, organism-based. Conditions: dose 3-10 mg/kg, time 8.0 day.

Data set [25] concerns Mus musculus. In words: Antiinflammatory activity against DSS-induced colitis C57BL/6J mouse model assessed as reduction in crypt structure loss in colon at 3 to 10 mg/kg, po pretreated with DSS for 10 days followed by twice daily compound administration for 8 days starting from day 3 to day 10 by H and E staining based analysis. It is filed as functional, organism-based. The following applies: dose 3-10 mg/kg, time 8.0 day.

The test system of data set [26] is Mus musculus. Briefly: Antiinflammatory activity against DSS-induced colitis C57BL/6J mouse model assessed as increase in colon length at 3 to 10 mg/kg, po pretreated with DSS for 10 days followed by twice daily compound administration for 8 days starting from day 3 to day 10. It counts as functional, organism-based. The following applies: dose 3-10 mg/kg, time 8.0 day.

Data set [27] is described as follows: Acute toxicity in male C57BL/6J mouse assessed as animal death at 1 g/Kg, po administered for 14 days. It is filed as organism-based. Conditions: in vivo, 1000 mg/kg, 336 h, time 14 day.
Data set [28] concerns Mus musculus. Briefly: Antiinflammatory activity against DSS-induced colitis C57BL/6J mouse model assessed as decrease in body weight loss at 3 mg/kg, po pretreated with DSS for 10 days followed by twice daily compound administration for 8 days starting from day 3 to day 10 relative to control. It counts as functional. Also on record: scale not given: the % may be the effect or the level left. Conditions: time 8 day.

Data set [29] has as its system Mus musculus. In words: Antiinflammatory activity against DSS-induced colitis C57BL/6J mouse model assessed as decrease in body weight loss at 10 mg/kg, po pretreated with DSS for 10 days followed by twice daily compound administration for 8 days starting from day 3 to day 10 relative to control. It counts as functional. Conditions: time 8 day. Also on record: scale not given: the % may be the effect or the level left.

Data set [30] relates to Mus musculus. In words: Antiinflammatory activity against DSS-induced colitis C57BL/6J mouse model assessed as decrease in disease activity index at 10 mg/kg, po pretreated with DSS for 10 days followed by twice daily compound administration for 8 days starting from day 3 to day 10 relative to control. It counts as functional, organism-based. The following applies: time 8.0 day.

T2 sequence (Q08499 whole entry): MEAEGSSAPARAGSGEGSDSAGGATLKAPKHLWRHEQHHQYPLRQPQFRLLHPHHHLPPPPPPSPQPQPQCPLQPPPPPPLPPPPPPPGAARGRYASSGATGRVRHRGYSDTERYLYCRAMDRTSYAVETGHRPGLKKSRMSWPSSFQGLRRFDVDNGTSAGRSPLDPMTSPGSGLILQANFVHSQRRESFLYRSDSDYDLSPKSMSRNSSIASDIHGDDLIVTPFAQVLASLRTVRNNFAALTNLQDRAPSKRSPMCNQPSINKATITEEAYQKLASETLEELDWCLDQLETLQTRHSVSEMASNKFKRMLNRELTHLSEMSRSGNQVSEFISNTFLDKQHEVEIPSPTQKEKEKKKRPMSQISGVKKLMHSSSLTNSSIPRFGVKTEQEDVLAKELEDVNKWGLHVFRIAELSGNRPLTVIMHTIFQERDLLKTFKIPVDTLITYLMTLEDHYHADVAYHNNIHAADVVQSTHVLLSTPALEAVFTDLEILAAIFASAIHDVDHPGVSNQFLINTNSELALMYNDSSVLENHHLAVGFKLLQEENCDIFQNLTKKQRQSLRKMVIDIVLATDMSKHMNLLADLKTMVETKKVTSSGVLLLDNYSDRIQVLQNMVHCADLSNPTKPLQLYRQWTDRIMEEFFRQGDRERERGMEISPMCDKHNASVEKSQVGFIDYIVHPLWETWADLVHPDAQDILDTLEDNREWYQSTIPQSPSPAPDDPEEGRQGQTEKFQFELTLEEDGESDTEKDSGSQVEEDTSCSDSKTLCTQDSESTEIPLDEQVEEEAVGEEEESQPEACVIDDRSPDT
T1 sequence (Q07343 whole entry, the tested form may be a part): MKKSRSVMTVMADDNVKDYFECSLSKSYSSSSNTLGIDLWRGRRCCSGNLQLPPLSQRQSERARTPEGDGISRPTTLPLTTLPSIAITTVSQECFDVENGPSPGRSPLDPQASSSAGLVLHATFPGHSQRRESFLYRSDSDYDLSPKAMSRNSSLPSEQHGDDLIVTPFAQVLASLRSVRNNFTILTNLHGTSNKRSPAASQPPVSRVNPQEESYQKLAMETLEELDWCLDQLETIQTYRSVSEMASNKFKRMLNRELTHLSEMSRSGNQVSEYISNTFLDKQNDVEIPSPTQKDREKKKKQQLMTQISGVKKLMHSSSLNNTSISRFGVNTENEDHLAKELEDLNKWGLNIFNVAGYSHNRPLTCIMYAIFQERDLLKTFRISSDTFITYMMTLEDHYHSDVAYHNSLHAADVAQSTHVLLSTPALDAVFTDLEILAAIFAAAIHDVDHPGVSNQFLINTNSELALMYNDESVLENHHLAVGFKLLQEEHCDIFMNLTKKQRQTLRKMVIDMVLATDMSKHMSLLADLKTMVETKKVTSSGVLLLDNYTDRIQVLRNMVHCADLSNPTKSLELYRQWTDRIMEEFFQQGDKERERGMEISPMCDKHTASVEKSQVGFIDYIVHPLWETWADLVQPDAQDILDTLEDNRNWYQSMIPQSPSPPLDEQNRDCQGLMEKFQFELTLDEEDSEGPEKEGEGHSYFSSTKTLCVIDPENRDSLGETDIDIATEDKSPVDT
High affinity 3',5'-cyclic-AMP phosphodiesterase 7A (Homo sapiens), sequence (Q13946 whole entry): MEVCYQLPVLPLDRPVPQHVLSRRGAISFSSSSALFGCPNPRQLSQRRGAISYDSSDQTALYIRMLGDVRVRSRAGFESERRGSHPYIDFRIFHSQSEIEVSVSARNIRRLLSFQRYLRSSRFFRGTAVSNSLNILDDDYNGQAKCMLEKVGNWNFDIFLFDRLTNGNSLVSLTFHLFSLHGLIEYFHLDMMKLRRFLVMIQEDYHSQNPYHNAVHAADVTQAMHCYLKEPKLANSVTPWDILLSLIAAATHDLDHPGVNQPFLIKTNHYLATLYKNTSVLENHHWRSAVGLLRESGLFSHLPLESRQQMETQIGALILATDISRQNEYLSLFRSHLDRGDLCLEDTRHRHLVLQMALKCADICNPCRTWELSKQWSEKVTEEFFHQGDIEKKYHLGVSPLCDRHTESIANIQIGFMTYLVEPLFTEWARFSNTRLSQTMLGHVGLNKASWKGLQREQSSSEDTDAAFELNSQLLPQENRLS
High affinity cGMP-specific 3',5'-cyclic phosphodiesterase 9A (Homo sapiens), sequence (O76083 whole entry): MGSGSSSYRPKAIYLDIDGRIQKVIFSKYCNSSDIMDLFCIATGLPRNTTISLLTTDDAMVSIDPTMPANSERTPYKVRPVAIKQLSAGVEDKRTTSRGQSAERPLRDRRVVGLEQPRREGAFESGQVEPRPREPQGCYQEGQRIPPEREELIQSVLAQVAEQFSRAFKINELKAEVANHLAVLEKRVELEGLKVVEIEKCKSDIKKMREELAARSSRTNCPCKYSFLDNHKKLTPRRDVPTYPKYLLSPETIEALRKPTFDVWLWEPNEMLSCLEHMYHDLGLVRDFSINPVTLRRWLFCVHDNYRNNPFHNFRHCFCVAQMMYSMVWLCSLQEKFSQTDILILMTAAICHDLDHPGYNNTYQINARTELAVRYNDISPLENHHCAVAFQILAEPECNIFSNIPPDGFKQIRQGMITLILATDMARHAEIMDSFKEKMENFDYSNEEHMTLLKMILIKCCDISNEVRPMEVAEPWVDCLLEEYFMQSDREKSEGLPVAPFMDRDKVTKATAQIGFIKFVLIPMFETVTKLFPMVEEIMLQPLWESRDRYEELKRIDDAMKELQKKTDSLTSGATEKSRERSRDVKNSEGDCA
cGMP-inhibited 3',5'-cyclic phosphodiesterase 3B (Homo sapiens), sequence (Q13370 whole entry, looked up): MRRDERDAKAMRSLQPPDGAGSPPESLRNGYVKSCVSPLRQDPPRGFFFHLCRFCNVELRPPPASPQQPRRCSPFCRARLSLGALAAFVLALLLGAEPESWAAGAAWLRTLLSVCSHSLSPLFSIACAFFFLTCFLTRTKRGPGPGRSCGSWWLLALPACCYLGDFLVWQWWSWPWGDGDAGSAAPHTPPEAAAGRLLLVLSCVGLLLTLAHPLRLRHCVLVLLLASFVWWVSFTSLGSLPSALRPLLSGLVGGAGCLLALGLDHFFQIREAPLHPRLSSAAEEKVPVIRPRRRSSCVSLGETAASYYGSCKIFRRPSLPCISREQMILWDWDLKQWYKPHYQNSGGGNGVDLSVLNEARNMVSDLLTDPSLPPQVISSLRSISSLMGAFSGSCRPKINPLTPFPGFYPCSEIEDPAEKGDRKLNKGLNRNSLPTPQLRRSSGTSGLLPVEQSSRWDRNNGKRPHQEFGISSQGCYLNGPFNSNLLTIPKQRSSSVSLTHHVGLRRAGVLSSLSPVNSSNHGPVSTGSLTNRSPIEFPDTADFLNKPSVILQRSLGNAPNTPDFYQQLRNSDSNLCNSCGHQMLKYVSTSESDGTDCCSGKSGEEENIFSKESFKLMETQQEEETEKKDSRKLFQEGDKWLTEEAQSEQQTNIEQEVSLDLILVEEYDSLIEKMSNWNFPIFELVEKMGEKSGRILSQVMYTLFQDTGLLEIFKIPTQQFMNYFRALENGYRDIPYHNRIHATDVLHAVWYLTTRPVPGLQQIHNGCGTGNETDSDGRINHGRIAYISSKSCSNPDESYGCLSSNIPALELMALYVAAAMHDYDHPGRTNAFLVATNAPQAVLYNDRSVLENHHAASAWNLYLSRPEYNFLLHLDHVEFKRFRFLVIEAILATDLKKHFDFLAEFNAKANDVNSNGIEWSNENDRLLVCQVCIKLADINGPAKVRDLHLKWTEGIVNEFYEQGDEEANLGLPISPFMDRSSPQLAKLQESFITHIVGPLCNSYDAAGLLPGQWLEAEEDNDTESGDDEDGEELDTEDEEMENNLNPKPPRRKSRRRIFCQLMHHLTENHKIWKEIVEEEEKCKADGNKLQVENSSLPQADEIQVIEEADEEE
High affinity cAMP-specific and IBMX-insensitive 3',5'-cyclic phosphodiesterase 8A (Homo sapiens), sequence (O60658 whole entry): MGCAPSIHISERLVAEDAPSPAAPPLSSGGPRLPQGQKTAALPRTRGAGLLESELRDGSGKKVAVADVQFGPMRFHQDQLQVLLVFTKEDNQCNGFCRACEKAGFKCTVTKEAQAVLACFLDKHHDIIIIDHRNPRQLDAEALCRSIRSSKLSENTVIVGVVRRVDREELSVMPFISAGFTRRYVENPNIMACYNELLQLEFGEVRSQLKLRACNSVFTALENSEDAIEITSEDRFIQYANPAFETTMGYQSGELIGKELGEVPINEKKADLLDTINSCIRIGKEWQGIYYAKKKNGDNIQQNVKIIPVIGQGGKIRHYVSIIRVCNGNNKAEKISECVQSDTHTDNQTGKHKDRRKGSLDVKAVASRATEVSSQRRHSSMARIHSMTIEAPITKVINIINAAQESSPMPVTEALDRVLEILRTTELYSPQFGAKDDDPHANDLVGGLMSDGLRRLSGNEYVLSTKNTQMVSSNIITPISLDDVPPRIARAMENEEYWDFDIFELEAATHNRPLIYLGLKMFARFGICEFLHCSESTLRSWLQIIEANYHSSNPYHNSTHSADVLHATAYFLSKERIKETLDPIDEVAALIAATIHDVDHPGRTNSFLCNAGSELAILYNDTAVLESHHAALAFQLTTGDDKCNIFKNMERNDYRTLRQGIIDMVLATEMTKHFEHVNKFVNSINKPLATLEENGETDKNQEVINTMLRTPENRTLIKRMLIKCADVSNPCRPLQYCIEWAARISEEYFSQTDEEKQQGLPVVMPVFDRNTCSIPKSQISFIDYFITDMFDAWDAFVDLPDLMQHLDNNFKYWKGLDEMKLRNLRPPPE

What is called IC50 is the point on the concentration scale where inhibition reaches its midpoint. Take `COc1ccc(-c2ccc3[nH]c(=O)ccc3c2)n2cc(C(F)(F)F)nc12`: the IC50 in data set [1] was less than 100 nM.
A word on the inhibition: it is the drop in the measured response relative to a control, in per cent. The bioavailability is dose-corrected exposure relative to a reference, in per cent. On to `COc1cc(-c2ccc(OC(F)F)c3nn(C4CC4)cc23)cc(OC)c1OC`, for which the inhibition came out at 86% in [2]; 42% in [4]; 6% in data set [5]; 14% in [6]; 12% in data set [7]; 7% in data set [8]. Further, the IC50 in [3] was 10.5 nM; in data set [9] it was 64.4 nM; in data set [10], 65.7 nM. The Activity entry was “Non-Toxic” in the data set on HT-22; “Non-Toxic” in data set [15]; “Non-Toxic” in data set [16]; “Non-Toxic” in data set [27]; 16.7% in the data set on Mus musculus [28]; 4.9% in the data set with Mus musculus [29]. Besides, the Ratio IC50 in [11], in [12], in data set [13] and in [14] was more than 156 each time. In data set [17], the bioavailability was found to be 5%. For the same molecule, the outcome in the data set with RAW264.7 [18], with RAW264.7 [19], in the data set on RAW264.7 [20], in the data set on Mus musculus [21], in the data set with Mus musculus [22] and with Mus musculus [23] was Active. Besides, the outcome with Mus musculus [24], in the data set on Mus musculus [25], in the data set on Mus musculus [26] and in the data set with Mus musculus [30] was Active.
